Reference: US20250108135A1, “TERAGNOSTIC METHOD FOR CANCER PATIENTS” (priority 2022, published 2025)

Tests used:
[1] = test system: 5 human neoplastic cell lines (ovarian cancer, head and neck, neuroendocrine lung carcinoma, colorectal cancer, glioblastoma); details: microPET after administration of 64CuCl2; cited from earlier work
[2] = test system: PCa spheroids (derived from 22RV1, DU145, and LNCaP cells); details: in vitro; cited from earlier work
[3] = Biodistribution, pharmacokinetics, dosimetry and safety in glioblastoma patients; format: in vivo, human
Protocol: Six glioblastoma patients were evaluated for safety profile and the study of biodistribution was conducted including evaluation of PET/CT scans after first daily dose administration of radiopharmaceutical composition having a radioconcentration of 2,775 MBq/mL (day 0), at different time points 1 h, 4 h, 24 h, 48 h after injection and pharmacokinetic (PK) radioactivity on blood samples at different time points of administration.

[4] = test system: Human GBM cell lines (LI) PARI, ADF and T98G; details: time and dose dependent; cited from earlier work
[5] = test system: U87MG, PC-3, CAMA1, C8161, HT-29, A549 cancer cell lines; experiment: 64CuCl2 tumor cell uptake (internalization) at different radioconcentrations; format: cell-based; details: 4 h after treatment; same dose of radioactivity; higher radioconcentrations (2,775 and 1,850 MBq/mL) compared to the lowest (925 MBq/mL); all the cell lines
Protocol: (§1) The capability resulted improved at a radioconcentration higher than 925 MBq/mL compared to lower concentrations. This is the first time that the impact of the drug radioconcentration has been correlated to the cell-killing effect for the translation to humans. The inventor performed internalization and survival studies on different cancer cell lines (U87MG [glioblastoma], PC-3[prostate cancer], CAMA1 [breast cancer], C8161[melanoma], HT-29[colorectal cancer]), A549 [lung cancer] applying the same amount (dose) of radioactivity (eg. 10 MBq), but at different radioconcentrations, e.g. 2,775 MBq/mL vs. 1,850 MBq/mL, vs. 925MBq/mL.
(§2) This effect of the radioconcentration could have a great impact on patients for the optimization of treatment. In fact, in consideration of the mechanism through which ^64Cu reaches the tumor cell, the different radioconcentrations, that is to say “the number of nuclear disintegrations per unit time in a given amount of the preparation”, can influence the biodistribution in vivo. […]
FIG. 1—Impact of different radioconcentrations on tumor cell uptake ^64CuCl2 cell uptake in different tumor cell lines U87MG, PC-3, CAMA1, C8161, HT-29. Cell uptake was evaluated treating cells at the same dosage (15 MBq/dish 100 mm), but at three different radioconcentrations C1=925 MBq/mL, C2=1,850 MBq/mL, C3=2,775 MBq/mL. Values are expressed as mean ±SEM.

[6] = Effective dose of the diagnostic 64CuCl2 administration; format: in vivo, human; details: diagnostic dose 370-925 MBq
Description: Patients with tumor received ^64CuCl2 at a dose between 370-925 MBq to ensure appropriate image quality. The mean effective dose for ^64CuCl2 calculated is 20 mSv per exam, which is aligned with the ones from the conventional PET imaging.

U-87 GM cells = details: nude mice implanted with U-87 GM cells; cited from earlier work
B16F10 or A375M tumors = details: vs control group, cited from earlier work
U87MG = experiment: Cell survival (cell-killing effect) at different radioconcentrations; format: cell-based
Protocol: as §1, §2
Survival curve of U87MG treated with the same dosage range but at three different concentrations C1=925 MBq/mL, C2=1,850 MBq/mL, C3=2,775 MBq/mL. Value are expressed as mean ±SEM. […]

prostate cancer = experiment: Response to 64CuCl2 treatment in prostate cancer patients (PET/CT); format: in vivo, human
Protocol: The patient at initial diagnosis had local tumor, and after surgery (radical prostatectomy) they underwent radiotherapy and chemotherapy. However, they experienced local recurrence plus a bone metastatic lesion. After receiving all standard treatments, the patient received a diagnostic dose of ^64CuCl2 equal to 925 MBq. After 1 h from administration a PET/CT scan is performed. The patient resulted positive for copper lesion at the diagnostic dose and started treatment. […] The PET/CT acquired the same day of the 4th therapeutic administration and the PET/CT acquired before treatment beginning were analyzed by two independent observers (a third observer expressed another evaluation only in case of discrepancies).

glioblastoma = experiment: Response to 64CuCl2 treatment in glioblastoma patients (MRI, RANO criteria); format: in vivo, human
Protocol: A glioblastoma patient of 70 kg that belongs to the class of recurrent glioblastoma. The patient underwent surgery, radiotherapy and chemotherapy and after that experienced recurrence. Standard treatment are not effective in this setting therefore the patient received a diagnostic dose of ^64CuCl2 equal to 925 MBq. After 1 h from administration a PET/CT scan is performed. The patient resulted positive for copper lesion at the diagnostic dose and started treatment
The treatment with ^64CuCl2 (2,775 MBq/mL) for intravenous use by injection followed this scheme and the patient received once a week: • 1st dose=4,810 MBq, 2nd dose=4,810 MBq, 3rd dose=4,810 MBq, 4th dose=4,810 MBq, 5th dose=4,810 MBq, 6th dose=4,810 MBq, 7th dose=4,810 MBq
The patient (71 Kg) underwent surgery, radiotherapy and chemotherapy and after that experienced recurrence. Standard treatments are not effective in this setting therefore the patient received a diagnostic dose of ^64CuCl2 equal to 925 MBq. After 1 h from administration a PET/CT scan is performed. The patient resulted positive for copper lesion at the diagnostic dose and started treatment (^64CuCl2 277 MBq/mL for intravenous by infusion).
The treatment followed this scheme and the patient received once a week: • 1st dose=1,850 MBq, 2nd dose=2,460 MBq, 3rd dose=2,922 MBq, 4th dose=3,292 MBq, 5th dose=3,606 MBq, 6th dose=3,865 MBq, 7th dose=4,068 MBq.
The phase I clinical trial on glioblastoma is the first study evaluating preliminary efficacy of ^64CuCl2 2,775 MBq/mL as therapeutic agent. This determination was performed on 10 patients, at the end of the 7th therapy dose, at 90th day (after 3 months of the last treatment) and whenever possible at 180th day to obtain a wider evaluation of the disease status. Data cut-off was performed after 5 patients. The response to treatment, in term of anti-tumor activity of ^64CuCl2, was measured by MRI, assessed according to the RANO criteria (Response Assessment in Neuro-Oncology, see Wen PY et al.) and defined as complete response (disappearance of tumor) partial response (reduction) and stable disease (non-progression of GBM). Among these patients 4 resulted responders and 1 non-responder. […] Tumor volume reduction ≥50% was also shown in two cases after three months from the last treatment, and in one patient after 6 months from the last treatment.

[7] = six glioblastoma patients, 2,775 MBq/mL
[8] = phase I glioblastoma, 2,775 MBq/mL, data cut-off after 5 patients, 7 treatments

## [Cl][Cu][Cl] [^64CuCl2, Copper Chloride]
[1]
  uptake of 64Cu2+ by neoplastic tissues: significant uptake
[2]
  growth of spheroids: reduce their growth
[3]; glioblastoma patients
  treatment related toxicities associated to liver/kidney and red marrow distribution: No treatment related toxicities were registered
[3]; [7]
  biodistribution (organ uptake): significant uptake in the liver (as expected) followed by kidney and L2-L4 regions
  effective dose, median: 26.08 mSv
[3]; six glioblastoma patients, 2,775 MBq/mL, PET/CT 1 h, 4 h, 24 h, 48 h after injection
  64Cu uptake over time (pharmacokinetic profile): increases up to 4 h post-injection and decreased thereafter
[4]
  modulation of cell viability: dose dependent
[5]
  cell uptake: significantly greater
[6]
  mean effective dose per exam: 20 mSv
U-87 GM cells
  tumor volume, in some cases: complete regression
B16F10 or A375M tumors; B16F10 and A375M models, one dose about 74 MBq
  tumor growth: much slower than that of the control group
B16F10 or A375M tumors; mice bearing B16F10 or A375M tumors
  survival: significantly improved survival
U87MG; 24 h after treatment, 2,775 MBq/mL, U87MG survival curve
  cell-killing effect: increased cell-killing effect
U87MG; C3=2,775 MBq/mL vs C1=925 MBq/mL at D4=1.7 MBq and D5=3.4 MBq
  improved cell killing-effect compared to C1: about 30%
Prostate cancer; five prostate cancer patients, after 4 administrations, 2,775 MBq/mL solution for injection
  volume of lesions (PET/CT): a reduction or a non-progression
Prostate cancer; metastatic prostate cancer patient, 2,775 MBq/mL injection, 7 doses of 4,810 MBq once a week
  tumor lesions on the bone, PET/CT before and after treatment: reduction of the tumor lesions on the bone
glioblastoma; 6 months from the last treatment
  patients with tumor volume reduction ≥50%: one
glioblastoma; day 42 evaluation
  patients with reduction of tumor volume ≥50% compared to baseline MRI: one
glioblastoma; day 42 evaluation, responder patients
  patients with stable disease: 3 patients
glioblastoma; day 90
  patients with stable disease: 2 patients
glioblastoma; [8]
  number of non-responders: 1
  number of responders: 4
glioblastoma; recurrent glioblastoma patient (71 Kg), 277 MBq/mL i.v. infusion, 7 increasing doses 1,850-4,068 MBq once a week
  response to the treatment: responder
glioblastoma; three months from the last treatment
  cases with tumor volume reduction ≥50%: two
glioblastoma; up to six months after treatment
  patients with stable disease: one
